One test deals with T1, TBK1 (Homo sapiens, UniProt Q9UHD2).
T1 construct: TBK1 and IKKε were expressed and purified as full length recombinant proteins; made in house
T1 sequence (Q9UHD2 1-729): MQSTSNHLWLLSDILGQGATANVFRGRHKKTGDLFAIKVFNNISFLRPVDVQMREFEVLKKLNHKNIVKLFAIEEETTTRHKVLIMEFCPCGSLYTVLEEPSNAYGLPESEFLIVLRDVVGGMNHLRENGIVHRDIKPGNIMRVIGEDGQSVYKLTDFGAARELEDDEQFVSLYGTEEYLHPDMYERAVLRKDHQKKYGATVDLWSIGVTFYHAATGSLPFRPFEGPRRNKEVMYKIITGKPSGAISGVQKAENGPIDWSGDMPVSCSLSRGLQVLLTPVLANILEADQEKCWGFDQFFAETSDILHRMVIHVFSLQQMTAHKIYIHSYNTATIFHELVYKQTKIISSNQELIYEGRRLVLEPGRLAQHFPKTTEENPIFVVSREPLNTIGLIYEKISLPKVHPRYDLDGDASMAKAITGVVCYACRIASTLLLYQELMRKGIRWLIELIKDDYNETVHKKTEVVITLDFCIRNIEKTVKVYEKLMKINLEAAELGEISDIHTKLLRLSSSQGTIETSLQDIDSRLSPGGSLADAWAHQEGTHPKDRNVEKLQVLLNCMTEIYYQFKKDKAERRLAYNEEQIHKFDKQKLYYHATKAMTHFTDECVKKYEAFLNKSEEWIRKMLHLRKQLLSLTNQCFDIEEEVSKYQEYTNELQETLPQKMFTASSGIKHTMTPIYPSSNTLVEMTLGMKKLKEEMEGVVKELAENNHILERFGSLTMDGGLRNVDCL
The test is described as follows: TR-FRET enzymatic activity assay, TBK1. Note: full length recombinant TBK1 at 2.5 nM. It is filed as biochemical. The gist of the method: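 Full-length recombinant enzymes phosphorylated a biotinylated Ser/Thr peptide for 240 min at 25 °C, stopped with EDTA. Phosphopeptide detected by TR-FRET (streptavidin XL665, Eu-cryptate anti-phospho antibody). IC50 from four-parameter fits normalized to 1 μM staurosporine and DMSO controls, as geometric means of at least four determinations.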
In general terms: Time-resolved FRET reads energy transfer from a long-lived donor to a nearby acceptor.

The next test has as its target T2, IKKε (Homo sapiens, UniProt Q14164).
T2 construct: TBK1 and IKKε were expressed and purified as full length recombinant proteins; made in house
T2 sequence (Q14164 1-716): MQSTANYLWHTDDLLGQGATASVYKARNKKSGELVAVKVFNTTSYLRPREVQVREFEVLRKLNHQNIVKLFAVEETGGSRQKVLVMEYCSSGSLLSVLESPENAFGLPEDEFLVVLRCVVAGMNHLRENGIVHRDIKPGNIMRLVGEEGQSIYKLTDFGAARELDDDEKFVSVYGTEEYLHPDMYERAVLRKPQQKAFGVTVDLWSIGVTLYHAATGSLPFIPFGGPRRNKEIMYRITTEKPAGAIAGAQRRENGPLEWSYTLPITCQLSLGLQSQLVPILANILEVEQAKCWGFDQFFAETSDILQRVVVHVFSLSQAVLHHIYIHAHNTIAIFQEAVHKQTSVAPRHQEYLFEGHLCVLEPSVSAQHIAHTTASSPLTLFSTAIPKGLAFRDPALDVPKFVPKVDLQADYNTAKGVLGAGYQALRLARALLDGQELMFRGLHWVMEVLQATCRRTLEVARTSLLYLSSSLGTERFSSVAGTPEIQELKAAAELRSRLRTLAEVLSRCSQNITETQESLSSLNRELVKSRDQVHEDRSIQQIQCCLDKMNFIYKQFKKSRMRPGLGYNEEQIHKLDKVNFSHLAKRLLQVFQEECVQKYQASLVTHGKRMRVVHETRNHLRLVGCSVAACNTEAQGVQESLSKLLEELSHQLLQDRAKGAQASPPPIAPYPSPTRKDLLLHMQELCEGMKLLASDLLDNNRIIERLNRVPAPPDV
The experiment in a line: TR-FRET enzymatic activity assay, IKKε. Note: full length recombinant IKKε at 0.3 nM. The format is biochemical. Conditions: read-out: IKKϵ IC50. The method, boiled down: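 Full-length recombinant IKKε phosphorylated a biotinylated Ser/Thr peptide for 240 min at 25 °C; EDTA stop. Phospho-peptide detected by TR-FRET with streptavidin-XL665 (125 nM) and Eu-cryptate anti-phospho antibody. Normalised to staurosporine and DMSO controls; IC50 from four-parameter fit, geometric mean of ≥4 runs.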

A word on the IC50: it is the concentration at which inhibition is half-maximal.

For `N#Cc1cc(-c2ccnc(NC(=O)[C@@H]3C[C@H]3C(N)=O)c2)ccc1O[C@H]1CCN(C(=O)CO)C[C@H]1F` [Example 85, (1,2-trans)-N-(4-(3-cyano-4-(((3R,4S)-3-fluoro-1-(2-hydroxyacetyl)piperidin-4-yl)oxy)phenyl)pyridin-2-yl)cyclopropane-1,2-dicarboxamide], the values for the half-inhibitory concentration (IC50) at TBK1 and at IKKε were 108 nM and 115 nM, respectively.
On the same counts, the results for `N#Cc1cc(-c2ccnc(NC(=O)[C@@H]3C[C@H]3c3cccnc3)c2)ccc1O[C@H]1CCN(C(=O)[C@@H](O)CO)CC1(F)F` [Example 133, (1,2-Trans)-N-(4-(3-cyano-4-(((S)-1-((S)-2,3-dihydroxypropanoyl)-3,3-difluoropiperidin-4-yl)oxy)phenyl)pyridin-2-yl)-2-(pyridin-3-yl)cyclopropane-1-carboxamide] are 6.4 nM and 9.9 nM.
Consider `N#Cc1cc(-c2ccnc(NC(=O)[C@H]3[C@@H]4COC[C@@H]43)c2)ccc1OC1CCOCC1` [Example 118, (1R,5S,6R)—N-(4-(3-cyano-4-((tetrahydro-2H-pyran-4-yl)oxy)phenyl)pyridin-2-yl)-3-oxabicyclo[3.1.0]hexane-6-carboxamide], for which the results for the IC50 against TBK1 and on IKKε were 871 nM and 632 nM, respectively.
With `N#Cc1cc(-c2cc(NC(=O)[C@@H]3C[C@H]3c3cccnc3)ncn2)ccc1O[C@H]1CCN(C(=O)CO)C[C@H]1F` [Example 147, (1,2-Trans)-N-(6-(3-cyano-4-(((3R,4S)-3-fluoro-1-(2-hydroxyacetyl)piperidin-4-yl)oxy)phenyl)pyrimidin-4-yl)-2-(pyridin-3-yl)cyclopropane-1-carboxamide], the values for the IC50 on TBK1 and at IKKε were 15.7 nM and 36.5 nM, respectively.
In the case of `CCOC(=O)[C@@H]1C[C@H]1C(=O)Nc1cc(-c2ccc(OC3CCOCC3)c(C#N)c2)ncn1` (relative stereo) [Example 35, (trans)-ethyl 2-((6-(3-cyano-4-((tetrahydro-2H-pyran-4-yl)oxy)phenyl)pyrimidin-4-yl)carbamoyl)cyclopropanecarboxylate], the IC50 against TBK1 is 485 nM; at IKKε, over 1000 nM.
Regarding `Cn1cc(C2CC2C(=O)Nc2cc(-c3ccc(O[C@H]4CCN(C(=O)CO)C[C@H]4F)c(C#N)c3)ccn2)cn1` (stereo partly drawn) [Example 77, N-(4-(3-cyano-4-(((3R,4S)-3-fluoro-1-(2-hydroxyacetyl)piperidin-4-yl)oxy)phenyl)pyridin-2-yl)-2-(1-methyl-1H-pyrazol-4-yl)cyclopropane-1-carboxamide], the IC50 against TBK1 was determined as 10.3 nM; at IKKε, 24.7 nM.
Consider `Cn1cc([C@@H]2C[C@H]2C(=O)Nc2cc(-c3ccc(O[C@H]4CCN(C(=O)CO)C[C@H]4F)c(C#N)c3)ncn2)cn1` [Example 143, (1,2-Trans)-N-(6-(3-cyano-4-(((3R,4S)-3-fluoro-1-(2-hydroxyacetyl)piperidin-4-yl)oxy)phenyl)pyrimidin-4-yl)-2-(1-methyl-1H-pyrazol-4-yl)cyclopropane-1-carboxamide], for which the concentration for half-maximal inhibition (IC50) stood at 19.9 nM against TBK1 and 44.3 nM on IKKε.
`CC(O)[C@@H]1C[C@H]1C(=O)Nc1cc(-c2ccc(OC3CCOCC3)c(C#N)c2)ccn1` (stereo partly drawn) [Example 39, (1,2-trans)-N-(4-(3-cyano-4-((tetrahydro-2H-pyran-4-yl)oxy)phenyl)pyridin-2-yl)-2-(-1-hydroxyethyl)cyclopropane-1-carboxamide]: the results for the IC50 at TBK1 and at IKKε were 96.3 nM and 73.2 nM, respectively.
Regarding `N#Cc1cc(-c2cc(NC(=O)C3CC3)ncn2)ccc1C(=O)NCC(F)(F)F` [Example 54, 2-cyano-4-(6-(cyclopropanecarboxamido)pyrimidin-4-yl)-N-(2,2,2-trifluoroethyl)benzamide], the concentration for half-maximal inhibition (IC50) on TBK1 is 883 nM; at IKKε it was over 1000 nM.
With `N#Cc1cc(-c2ccnc(NC(=O)[C@H]3C[C@@H]3[N+](=O)[O-])c2)ccc1OC1CCOCC1` (relative stereo) [Example 86, (1,2 trans)-N-(4-(3-cyano-4-((tetrahydro-2H-pyran-4-yl)oxy)phenyl)pyridin-2-yl)-2-nitrocyclopropane-1-carboxamide], the half-inhibitory concentration (IC50) against TBK1 came to 529 nM; on IKKε, 314 nM.

Source of the values: patent US10316049B2, “Tank-binding kinase inhibitor compounds” (Gilead Sciences, Inc., priority 2015, dated 2019).
